Consider six compounds from patent publication US8759366B2, “Aminopyrimidines as SYK inhibitors” (Merck Sharp & Dohme Corp., priority 2009, dated 2014).

As usually defined, the IC50 is the concentration at which inhibition is half-maximal.

The target of one series is rhSYK (Homo sapiens (Human), UniProt P43405). The series is described as follows: biochemical.
Series [1] concerns the target recombinant human SYK (GST-hSYK fusion protein) (Homo sapiens (Human), UniProt P43405). The series is described as follows: biochemical.
Description: Homogeneous Time-Resolved Fluorescence (HTRF) Assay for the Recombinant Human SYK Enzyme:
The subject of the next series is PGD2. Conditions: dosed intranasally, phase I/II study, allergic rhinitis; cited from earlier work.
For series [2] the following is noted: phase II clinical trial, allergic rhinitis; cited from earlier work.

SMILES strings stand for the structures. A value given as a limit tells only on which side of the number the result lay.

On rhSYK, `CCNC(=O)Nc1cc(Nc2nccc(C(F)(F)F)n2)cc(-c2cnc(C3CCC(C(N)=O)CC3)s2)c1` (single isomer, unassigned) [Example 20(1), 4-[5-(3-[(ethylcarbamoyl)amino]-5-{[4-(trifluoromethyl)pyrimidin-2-yl]amino}phenyl)-1,3-thiazol-2-yl]cyclohexanecarboxamide] registered an IC50 below 100 nM. On to `O=C(O)[C@H]1CC[C@H](c2ncc(-c3cccc(Nc4nccc(C(F)(F)F)n4)c3)s2)CC1` [Example 22, Trans-4-[5-(3-{[4-(trifluoromethyl)pyrimidin-2-yl]amino}phenyl)-1,3-thiazol-2-yl]cyclohexanecarboxylic acid], for which the IC50 against rhSYK is below 100 nM.

Consider `Cc1cc(Nc2nccc(C(F)(F)F)n2)cc(-c2cnc(C3CCC(C(N)=O)C(C)(C)C3)s2)c1` (single isomer, unassigned) [154(b), 2,2-Dimethyl-4-[5-(3-methyl-5-{[4-(trifluoromethyl)pyrimidin-2-yl]amino}phenyl)-1,3-thiazol-2-yl]cyclohexanecarboxamide], for which the IC50 in series [1] lay within 100 to 1000 nM. Consider `Oc1cccc(Nc2ncc(F)c(Nc3cccc(O)c3)n2)c1` [Example R112], for which, in the series with PGD2, the PGD2 entry is “statistically significant decrease” and the clinical safety entry is “safe across a range of indicators”. Moreover, in series [2], the efficacy versus placebo entry is “lack of efficacy”. On rhSYK, `O=C(NC1CC1)[C@H]1CC[C@H](c2ncc(-c3cccc(Nc4nccc(C(F)(F)F)n4)c3)s2)CC1` [Example 23, trans-N-cyclopropyl-4-[5-(3-{[4-(trifluoromethyl)pyrimidin-2-yl]amino}phenyl)-1,3-thiazol-2-yl]cyclohexanecarboxamide] displayed an IC50 below 100 nM. In the case of `Cc1cc(Nc2nccc(C(F)(F)F)n2)cc(-c2cnc(C3(O)CCC(NC(=O)C4CCCOC4)CC3)s2)c1` (centres unmarked) [Example 54E-18], the IC50 in series [1] is below 100 nM.
